One block for each compound: values may come before it.
Columns and labels:
P2RY2 = biological target: T1, P2RY2 (Rattus norvegicus, UniProt P41232); assay: Fluo-4 Ca2+ assay in null FRT cells with P2RY2 antagonist; type: cell-based; conditions: AR-C118925XX 10 μM; UTP 0.25 μM; FIG. 5B
T1 construct: endogenous in cells; host or cells: null (parental) FRT cells
Description: Experiments were performed using the microplate reader described for the HS-YFP assay. FRT and HEK293 cells were cultured until confluence in 96-well microplates (3603, Corning). Cells were washed 2 times with PBS (150 μl/wash) and then loaded for 1 h at 37° C. with 5 μM Fluo-4/AM (Thermo Fisher Scientific; catalog number: F23917) in PBS containing 10 mM glucose, 0.5 mM sulfinpyrazone, and 1% fetal bovine serum. After loading, cells were washed 2 times with PBS-glucose-sulfinpyrazone (150 μl/wash) and incubated for 20 min at 37° C. with 60 μl of PBS plus 10 mM glucose and 0.5 mM sulfinpyrazone containing compounds of interest at 10 μM final concentration or vehicle. Each well was assayed individually. Fluo-4 fluorescence (500 nm excitation, 535 nm emission) was detected every 200 ms for 16-40 s. Two seconds after the start of fluorescence recording, the reader automatically injected 165 μl of a modified PBS containing 136 mM KCl instead of NaCl. This solution also contained 10 mM glucose, 0.5 mM sulfinpyrazone, and UTP or SLIGR-NH2 (CAS #171436-38-7) at a final concentration that depended on the specific cell type. […] The Fluo-4 fluorescence increase was quantified using a procedure compiled in Microsoft Excel after background subtraction and normalization for the initial value measured before UTP addition.

PLC = PLC assay in FRT cells expressing PH-PLC-GFP sensor; type: cell-based; conditions: pre-incubation with BAPTA/AM; FIG. 3B
Description: FRT cells with stable expression of PLC6-PH-GFP, generated in the laboratory of inventors, were cultured up to subconfluent condition in p-Plate96 microplates (Ibidi). Each well of a 96-well microplate was washed 3 times, leaving 125 μl of phosphate-buffered saline (PBS) containing compounds at 10 μM final concentration or vehicle. After 20 min of incubation at 37° C., microplate was moved on the stage of an inverted microscope equipped with GFP excitation/emission filters, 40×oil immersion objective (Olympus, Segrate, Italy), Lambda DG4 illumination system (Sutter Instrument Co., Novato, CA, USA), Prime cmos camera (Photometrics, Tucson, AZ, USA) and MetaMorph imaging acquisition software (Molecular Devices, Sunnyvale, CA, USA). Time-lapse experiments were carried out with 50 ms exposure time, 20 frame/s rate, and 2.4 min total duration. After 20 s and 90 s, UTP 0.25 μM and 100 μM (final concentrations) was respectively added. Analysis was performed with MetaMorph software, by quantifying GFP fluorescence cytoplasmic accumulation in manually selected single cell regions of interest (ROI). After background subtraction, fluorescence recordings were normalized for the initial value.

FRT cells = assay: Fluo-4 Ca2+ mobilization assay in parental (null) FRT cells; type: cell-based, rat; conditions: for potentiation of the Ca2+ increase elicited by UTP, multiple concentrations: UTP 0.25 μM, compounds 1-80 μM, vs vehicle (DMSO), FIG. 8
Description: Experiments were performed using the microplate reader described for the HS-YFP assay. FRT and HEK293 cells were cultured until confluence in 96-well microplates (3603, Corning). Cells were washed 2 times with PBS (150 μl/wash) and then loaded for 1 h at 37° C. with 5 μM Fluo-4/AM (Thermo Fisher Scientific; catalog number: F23917) in PBS containing 10 mM glucose, 0.5 mM sulfinpyrazone, and 1% fetal bovine serum. […] Each well was assayed individually. Fluo-4 fluorescence (500 nm excitation, 535 nm emission) was detected every 200 ms for 16-40 s. Two seconds after the start of fluorescence recording, the reader automatically injected 165 μl of a modified PBS containing 136 mM KCl instead of NaCl. This solution also contained 10 mM glucose, 0.5 mM sulfinpyrazone, and UTP or SLIGR-NH2 (CAS #171436-38-7) at a final concentration that depended on the specific cell type. For UTP we used: 0.25 μM for FRT; 1 μM for HEKR2; 5 μM for HEK3XKO, HEKR1, and HEKR3. For SLIGR-NH2 we used: 10 μM for HEKR1; 4 μM for HEKR2. These concentrations were chosen to elicit ˜20% of maximal effect based on UTP and SLIGR-NH2 dose-response relationships. The lower agonist concentrations used for HEKR2 cells, compared to HEKR1 cells, are consistent with the higher affinity of ITPR2 for IP3 (16). The Fluo-4 fluorescence increase was quantified using a procedure compiled in Microsoft Excel after background subtraction and normalization for the initial value measured before UTP addition.
In a further experimental setting, experiments were performed using as above the FLUOstar Omega (BMG Labtech, Offenburg, Germany) microplate reader equipped with syringe pumps and optical excitation/emission filters optimized for yellow fluorescent protein (YFP) fluorescence (ET500/20× and ET535/30m, respectively; Chroma Technology Corporation). FRT and Chem-1 cells were cultured until confluence in 96-well microplates (cc3603, Corning). Cells were washed 2 times with PBS (150 μl/wash) and then loaded for 1 h at 37° C. with 5 μM Fluo-4/AM (Thermo Fisher Scientific; catalog number: F23917) in PBS containing 10 mM glucose, 0.5 mM sulfinpyrazone, and 1% fetal bovine serum. […] Each well was assayed individually. Fluo-4 fluorescence (500 nm excitation, 535 nm emission) was detected every 200 ms for 16-40 s. Two seconds after the start of fluorescence recording, the reader automatically injected 165 μl of a modified PBS containing 136 mM KCl instead of NaCl. This solution also contained, in addition to 10 mM glucose and 0.5 mM sulfinpyrazone, the following agonists: UTP (U6625, Merck) or CCK8s (23371, Cayman Chemical). The Fluo-4 fluorescence increase was quantified using a procedure compiled in Microsoft Excel after background subtraction and normalization for the initial value measured before UTP or CCK8s addition.

ENaC = assay: Short-circuit current recordings on human cultured bronchial epithelia, ENaC function; type: cell-based; conditions: apical addition; ARN7149 10 μM, ARN11391 20 μM, ARN4550 20 μM, UTP 10 nM; FIG. 9
Description: In a further experimental setting, snapwell supports (cc3801, Corning) carrying differentiated bronchial epithelia generated in vitro were mounted in a vertical chamber resembling an Ussing system with internal fluid circulation (EM-CSYS-8, Physiologic Instruments, San Diego, CA, USA). The apical and basolateral hemichambers were filled with a solution containing (in mM): 126 NaCl, 0.38 KH2PO4, 2.13 K2HPO4, 1 MgSO4, 1 CaCl2), 24 NaHCO3, and 10 glucose. Both sides were continuously bubbled with a gas mixture containing 5% CO2 and 95% air. The temperature of the solution was kept at 37° C. throughout the experiment.
During recordings, the following molecules (in addition to ARN7149, ARN11391, and ARN4550) were added in the apical solution: elastase (SE2093002, Serva); UTP (U6625, Merck); amiloride (A7410, Merck). Transepithelial voltage was short-circuited with a voltage-clamp (VCC MC8, Physiologic Instruments, San Diego, CA, USA) connected to the apical and basolateral chambers via Ag—AgCl electrodes and agar bridges (2% agar in 1 M KCl). The offset between voltage electrodes and the fluid resistance were cancelled before experiments. The resulting short-circuited current from each channel was recorded on a personal computer with the Acquire & Analize 2.3 software (Physiologic Instruments, San Diego, CA, USA).

TMEM16A = assay: HS-YFP assay in ITPR-defective HEK293 cells transiently transfected with TMEM16A; type: cell-based; conditions: ionomycin 1 μM, FIG. 2D

T1 sequence (P41232 whole entry): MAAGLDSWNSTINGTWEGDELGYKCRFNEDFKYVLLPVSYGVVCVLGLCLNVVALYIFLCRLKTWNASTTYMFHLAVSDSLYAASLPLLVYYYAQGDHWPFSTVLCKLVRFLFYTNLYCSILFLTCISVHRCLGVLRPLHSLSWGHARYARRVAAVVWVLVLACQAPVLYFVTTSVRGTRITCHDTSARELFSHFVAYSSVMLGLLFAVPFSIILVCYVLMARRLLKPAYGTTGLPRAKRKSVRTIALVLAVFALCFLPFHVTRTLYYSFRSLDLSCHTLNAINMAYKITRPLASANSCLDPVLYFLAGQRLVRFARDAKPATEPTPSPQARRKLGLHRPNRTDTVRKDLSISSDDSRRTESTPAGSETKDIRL

effect of UTP alone and of UTP plus potentiators on Ca2+ mobilization (P2RY2): completely blocked
Compound: Cc1ccc2c(c1)C=Cc1cc(C)ccc1C2c1cn(Cc2ccc(C(=O)Nc3nn[nH]n3)o2)c(=O)[nH]c1=S [AR-C118925XX]

Compound: CC(=O)OCOC(=O)CN(CC(=O)OCOC(C)=O)c1ccccc1OCCOc1ccccc1N(CC(=O)OCOC(C)=O)CC(=O)OCOC(C)=O [BAPTA/AM, 1,2-Bis(2-aminophenoxy)ethane-N,N,N′,N′-tetraacetic acid tetrakis(acetoxymethyl ester), reference compound]
PLC activity with/without compounds after Ca2+ chelation (PLC): markedly inhibited

Compound: COCCN(C(=O)c1cc(OC)c(OC)c(OC)c1)c1nc(-c2ccccc2)cs1 [Eact, reference compound]
direct Ca2+ mobilization in the absence of UTP (Fluo-4) (FRT cells; acute addition, compounds 10 μM, Eact 5 μM, FIG. 2B): elicits Ca^2+ influx

Compound: O=c1ccn([C@@H]2O[C@H](COP(=O)(O)OP(=O)(O)OP(=O)(O)O)[C@@H](O)[C@H]2O)c(=O)[nH]1 [UTP, reference compound]
ENaC current decay (ENaC inhibition), short-circuit current (ENaC): ENaC current decay

Compound: O=C(Nc1ccccc1OCC1CCCCO1)C1CCCN(c2ccccn2)C1 (stereo not shown) [compound 6, 1-(2-Pyridyl)-N-[2-(tetrahydropyran-2-ylmethoxy)phenyl]piperidine-3-carboxamide]
potentiation of the Ca2+ increase elicited by UTP, multiple concentrations (FRT cells): dose-dependent potentiation

Compound: O=C(Nc1ccccc1OCC1CCCCO1)C1CC2C=CC1C2 (stereo not shown) [compound 7, N-[2-(Tetrahydropyran-2-ylmethoxy)phenyl]bicyclo[2.2.1]hept-5-ene-2-carboxamide]
potentiation of the Ca2+ increase elicited by UTP, multiple concentrations (FRT cells): dose-dependent potentiation

Compound: C[C@H](CCC(=O)O)C[C@H](C)C[C@H](C)C(=O)/C=C(\O)[C@H](C)C[C@H](C)C/C=C/[C@@H](C)[C@@H](O)[C@@H](C)[C@@H](O)C[C@@H]1CC[C@@](C)([C@H]2CC[C@@](C)([C@@H](C)O)O2)O1 [ionomycin, reference compound]
activation of TMEM16A when Ca2+ directly increased (HS-YFP) (TMEM16A): large effect

From patent publication US20260138970A1, “MODULATORS OF THE CALCIUM SIGNALING CASCADE” (FONDAZIONE TELETHON ETS, priority 2022, published 2026)
